Results as given in patent US12090141B2, “Use of clemizole compounds for treatment of inflammatory conditions” (priority 2015, dated 2024).

Experiments:
NASH mice [1] = test: NAFLD activity score, HE staining of liver sections of NASH mice; assay type: in vivo, C57BL/6 mice; conditions: for NAS (mean ± SD): n = 6, NAFLD activity score by Kleiner criteria; for Steatosis score 0, number of mice: n = 6, score 0 = <5%; for Steatosis score 1, number of mice: n = 6, score 1 = 5-33%; for Hepatocyte ballooning score 1, number of mice: n = 6, score 1 = Few Balloon cells; for Lobular inflammation score 2, number of mice: n = 6, score 2 = 2-4 foci/200x; for Hepatocyte ballooning score 2, number of mice: n = 6, score 2 = Many cells/prominent ballooning; for Lobular inflammation score 3, number of mice: n = 6, score 3 = >4 foci/200x; for Lobular inflammation score 1, number of mice: n = 6, score 1 = <2 foci/200x
Procedure: (§1) NASH was induced in 55 male mice by a single subcutaneous injection of 200 μg streptozotocin (STZ, Sigma-Aldrich, USA) solution 2 days after birth and feeding with high fat diet (HFD, 57 kcal % fat, cat #: HFD32, CLEA Japan, Inc., Japan) after 4 weeks of age. Mice that had been induced have NASH by this method are referred to below as NASH mice.
(§2) Compound D was orally administered at doses of 89 mg/kg twice daily.
(§3) For HE staining, sections were cut from paraffin blocks of liver tissue prefixed in Bouin's solution and stained with Lillie-Mayer's Hematoxylin (Muto Pure Chemicals Co., Ltd., Japan) and eosin solution (Wako Pure Chemical Industries). NAFLD Activity score (NAS) was calculated according to the criteria of Kleiner (Kleiner D E. et al., Hepatology, 2005; 41:1313). To visualize collagen deposition, Bouin's fixed liver sections were stained using picro-Sirius red solution (Waldeck, Germany).
Definition of NAS Components

NASH mice [2] = test: Liver fibrosis area, Sirius red staining in NASH mice; assay type: in vivo, C57BL/6 mice; conditions: for Sirius red-positive area (mean ± SD): liver fibrosis area, n = 6
Procedure: as §3
For quantitative analysis of fibrosis areas bright field images of Sirius red-stained sections were captured around the central vein for livers using a digital camera (DFC280; Leica, Germany) at 200-fold magnification, and the positive areas in 5 fields/section were measured using ImageJ software (National Institute of Health, USA).

NASH mice [3] = test: Body weight and liver weight in NASH mice (sacrifice 9 wk); conditions: for Mean body weight on the day of sacrifice vs Vehicle group / Mean liver weight on the day of sacrifice vs Vehicle group / Mean liver-to-body weight ratio on the day of sacrifice vs Vehicle group: 9 wk; for Body weight (mean ± SD): day of sacrifice 9 wk, n = 6, oral from 6 wks, A-C 258 then 129 mg/kg once daily, D 89 mg/kg twice daily; for Liver weight (mean ± SD) / Liver-to-body weight ratio (mean ± SD): sacrifice 9 wk, n = 6
Procedure: as §1, §2
C57BL/6 mice (14-day-pregnant female) were obtained from Japan SLC, Inc. (Shizuoka, Japan). All animals used in the study were housed and cared for in accordance with the Japanese Pharmacological Society Guidelines for Animal Use.

NASH mice [4] = test: Whole blood glucose and plasma ALT in NASH mice; assay type: in vivo, C57BL/6 mice; conditions: for Whole blood glucose levels vs Vehicle group: during the study period, non-fasting; for Plasma ALT (mean ± SD): time of sacrifice, n = 6
Procedure: Non-fasting blood was collected in polypropylene tubes with anticoagulant (Novo-heparin, Mochida Pharmaceutical, Japan) from submandibular bleeding at 6 (before dosing), 7 and 8 weeks of age. The collected blood samples were centrifuged and the supernatant were collected as heparinized plasma.
Non-fasting blood glucose in whole blood was measured using LIFE CHECK (EIDIA Co. Ltd., Japan). Plasma ALT was measured by FUJI DRI-CHEM 7000 (Fujifilm Corporation, Japan).

mice with HCC = test: Macroscopic analysis of liver tumor nodules in mice with HCC; assay type: in vivo, C57BL/6 mice; conditions: for Maximum diameter of nodules (mean ± SD) / Number of nodules (mean ± SD): macroscopically visible tumor nodules on liver surface, n = 1-3
Procedure: The number of macroscopically visible tumor nodules formed on the liver surface was measured. The maximum diameter of macroscopically visible tumor nodules formed on the liver surface was measured.

NASH induced HCC mice = test: Body weight and liver weight in NASH induced HCC mice (sacrifice 18 wk); assay type: in vivo; conditions: for Body weight (mean ± SD) / Liver weight (mean ± SD) / Liver-to-body weight ratio (mean ± SD): NASH induced HCC mice, 18 wk, n = 1-3
Text: Table 1 below summarizes the treatment schedule.

[5] = tested on: hepatocellular carcinoma (HCC); test: Phase IIa open label pilot study of clemizole in subjects with hepatocellular carcinoma; assay type: in vivo, human
Procedure: The completed study treats up to 40 patients. Initial clinical results from two patients with hepatocellular carcinoma who were administered 200 mg clemizole for 3 or 5 months are described below.

CYP3A4 = CYP3A4 (Homo sapiens, UniProt P08684); test: Clemizole metabolism by CYP450 enzymes in vitro; assay type: in vitro ADME
CYP3A4, sequence (P08684 whole entry): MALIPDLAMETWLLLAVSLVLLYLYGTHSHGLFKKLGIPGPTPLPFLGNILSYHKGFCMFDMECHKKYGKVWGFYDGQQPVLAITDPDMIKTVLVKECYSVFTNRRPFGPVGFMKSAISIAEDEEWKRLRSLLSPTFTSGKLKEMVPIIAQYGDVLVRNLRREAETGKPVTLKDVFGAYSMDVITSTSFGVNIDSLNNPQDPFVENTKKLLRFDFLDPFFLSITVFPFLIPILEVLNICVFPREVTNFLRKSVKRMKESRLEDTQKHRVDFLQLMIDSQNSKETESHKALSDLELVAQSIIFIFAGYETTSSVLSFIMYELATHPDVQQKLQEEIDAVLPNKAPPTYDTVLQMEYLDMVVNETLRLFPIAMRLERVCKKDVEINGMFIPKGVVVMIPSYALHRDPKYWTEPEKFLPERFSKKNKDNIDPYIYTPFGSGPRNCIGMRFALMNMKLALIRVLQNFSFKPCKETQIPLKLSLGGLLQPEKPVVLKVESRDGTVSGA

HCC [6] = conditions: phase 3 study, cited from earlier work
HCC [7] = conditions: phase 2 study, cited from earlier work
[8] = treatment period, 4 mice per group

CCN(CC)CCCC(C)Nc1ccnc2cc(Cl)ccc12 (stereo not drawn) [Compound A, Recemic mixture of R-chloroquine and S-chloroquine]
NAS (mean ± SD) (NASH mice [1]): 5.2 ± 0.8
Steatosis score 0, number of mice (NASH mice [1]): 1
Steatosis score 1, number of mice (NASH mice [1]): 5
Hepatocyte ballooning score 1, number of mice (NASH mice [1]): 3
Lobular inflammation score 2, number of mice (NASH mice [1]): 1
Hepatocyte ballooning score 2, number of mice (NASH mice [1]): 3
Lobular inflammation score 3, number of mice (NASH mice [1]): 5
Fibrosis area at the time of sacrifice vs Vehicle group (NASH mice [2]): no significant differences
Sirius red-positive area (mean ± SD) (NASH mice [2]): 0.87 ± 0.23%
Mean body weight on the day of sacrifice vs Vehicle group (NASH mice [3]): no significant differences
Mean liver weight on the day of sacrifice vs Vehicle group (NASH mice [3]): no significant differences
Mean liver-to-body weight ratio on the day of sacrifice vs Vehicle group (NASH mice [3]): no significant differences
Body weight (mean ± SD) (NASH mice [3]): 15.0 ± 1.9 g
Liver weight (mean ± SD) (NASH mice [3]): 1045 ± 243 mg
Liver-to-body weight ratio (mean ± SD) (NASH mice [3]): 7.0 ± 1.4%
Whole blood glucose levels vs Vehicle group (NASH mice [4]): no significant differences
Plasma ALT (mean ± SD) (NASH mice [4]): 21 ± 13 U/L
Maximum diameter of nodules (mean ± SD) (mice with HCC; 18 wk): 6.1 ± 0.0 mm
Number of nodules (mean ± SD) (mice with HCC; 18 wk): 2.0 ± 0.0
Body weight (mean ± SD) (NASH induced HCC mice): 17.5 ± 0.0 g
Liver weight (mean ± SD) (NASH induced HCC mice): 1443 ± 0 mg
Liver-to-body weight ratio (mean ± SD) (NASH induced HCC mice): 8.2 ± 0.0%
Mice died before reaching week 18 (NASH induced HCC mice; [8]): Three out of 4

CCN(CC)CCC[C@@H](C)Nc1ccnc2cc(Cl)ccc12 [Compound B, R-chloroquine]
NAS compared with the Vehicle group (NASH mice [1]): significant reduction
NAS (mean ± SD) (NASH mice [1]): 4.3 ± 0.5
Steatosis score 0, number of mice (NASH mice [1]): 1
Steatosis score 1, number of mice (NASH mice [1]): 5
Lobular inflammation score 1, number of mice (NASH mice [1]): 2
Hepatocyte ballooning score 1, number of mice (NASH mice [1]): 1
Lobular inflammation score 2, number of mice (NASH mice [1]): 4
Hepatocyte ballooning score 2, number of mice (NASH mice [1]): 5
Fibrosis area at the time of sacrifice vs Vehicle group (NASH mice [2]): no significant differences
Sirius red-positive area (mean ± SD) (NASH mice [2]): 0.78 ± 0.35%
Mean body weight on the day of sacrifice vs Vehicle group (NASH mice [3]): no significant differences
Mean liver weight on the day of sacrifice vs Vehicle group (NASH mice [3]): no significant differences
Mean liver-to-body weight ratio on the day of sacrifice vs Vehicle group (NASH mice [3]): no significant differences
Body weight (mean ± SD) (NASH mice [3]): 14.5 ± 2.4 g
Liver weight (mean ± SD) (NASH mice [3]): 934 ± 135 mg
Liver-to-body weight ratio (mean ± SD) (NASH mice [3]): 6.5 ± 0.4%
Whole blood glucose levels vs Vehicle group (NASH mice [4]): no significant differences
Plasma ALT (mean ± SD) (NASH mice [4]): 14 ± 6 U/L
Maximum diameter of nodules (mean ± SD) (mice with HCC; 18 wk): 11.1 ± 7.0 mm
Number of nodules (mean ± SD) (mice with HCC; 18 wk): 2.0 ± 1.4
Body weight (mean ± SD) (NASH induced HCC mice): 20.4 ± 0.3 g
Liver weight (mean ± SD) (NASH induced HCC mice): 1616 ± 635 mg
Liver-to-body weight ratio (mean ± SD) (NASH induced HCC mice): 7.9 ± 3.0%
Mice died before reaching week 18 (NASH induced HCC mice; [8]): Two out of 4

CCN(CC)CCC[C@H](C)Nc1ccnc2cc(Cl)ccc12 [Compound C, S-chloroquine]
NAS (mean ± SD) (NASH mice [1]): 5.3 ± 0.5
Steatosis score 1, number of mice (NASH mice [1]): 6
Lobular inflammation score 2, number of mice (NASH mice [1]): 4
Hepatocyte ballooning score 2, number of mice (NASH mice [1]): 6
Lobular inflammation score 3, number of mice (NASH mice [1]): 2
Fibrosis area at the time of sacrifice vs Vehicle group (NASH mice [2]): no significant differences
Sirius red-positive area (mean ± SD) (NASH mice [2]): 0.90 ± 0.44%
Mean body weight on the day of sacrifice vs Vehicle group (NASH mice [3]): significantly decreased
Mean liver weight on the day of sacrifice vs Vehicle group (NASH mice [3]): significantly decreased
Mean liver-to-body weight ratio on the day of sacrifice vs Vehicle group (NASH mice [3]): no significant differences
Body weight (mean ± SD) (NASH mice [3]): 13.7 ± 1.3 g
Liver weight (mean ± SD) (NASH mice [3]): 810 ± 77 mg
Liver-to-body weight ratio (mean ± SD) (NASH mice [3]): 5.9 ± 0.4%
Whole blood glucose levels vs Vehicle group (NASH mice [4]): no significant differences
Plasma ALT (mean ± SD) (NASH mice [4]): 9 ± 3 U/L
Maximum diameter of nodules (mean ± SD) (mice with HCC; 18 wk): 3.5 ± 5.0 mm
Number of nodules (mean ± SD) (mice with HCC; 18 wk): 1.5 ± 2.1
Body weight (mean ± SD) (NASH induced HCC mice): 17.9 ± 2.8 g
Liver weight (mean ± SD) (NASH induced HCC mice): 1353 ± 178 mg
Liver-to-body weight ratio (mean ± SD) (NASH induced HCC mice): 7.6 ± 0.1%
Mice died before reaching week 18 (NASH induced HCC mice; [8]): Two out of 4

Clc1ccc(Cn2c(CN3CCCC3)nc3ccccc32)cc1 [Compound D, clemizole]
NAS compared with the Vehicle group (NASH mice [1]): significant reduction
NAS (mean ± SD) (NASH mice [1]): 4.3 ± 1.0
Steatosis score 0, number of mice (NASH mice [1]): 1
Steatosis score 1, number of mice (NASH mice [1]): 5
Lobular inflammation score 1, number of mice (NASH mice [1]): 4
Lobular inflammation score 2, number of mice (NASH mice [1]): 1
Hepatocyte ballooning score 2, number of mice (NASH mice [1]): 6
Lobular inflammation score 3, number of mice (NASH mice [1]): 1
Fibrosis area at the time of sacrifice vs Vehicle group (NASH mice [2]): no significant differences
Sirius red-positive area (mean ± SD) (NASH mice [2]): 0.95 ± 0.39%
Mean body weight on the day of sacrifice vs Vehicle group (NASH mice [3]): no significant differences
Mean liver weight on the day of sacrifice vs Vehicle group (NASH mice [3]): no significant differences
Mean liver-to-body weight ratio on the day of sacrifice vs Vehicle group (NASH mice [3]): no significant differences
Liver weight (mean ± SD) (NASH mice [3]): 1047 ± 76 mg
Liver-to-body weight ratio (mean ± SD) (NASH mice [3]): 6.8 ± 0.4%
HCC status on follow up dynamic liver CT imaging ([5]; Patient #1, 200 mg clemizole orally thrice daily, after 3 months): the HCC remained stable
Tolerability (complaints or side effects) ([5]; Patient #1, 200 mg thrice daily, after 3 months): no complaints or side effects
HCC status on follow up dynamic liver magnetic resonance imaging ([5]; Patient #2, 200 mg clemizole orally thrice daily, after 5 months): the HCC remained stable
Tolerability (complaints or side effects) ([5]; Patient #2, 200 mg thrice daily, after 5 months): no complaints or side effects
Role of CYP3A4 in clemizole biotransformation in human liver (CYP3A4): mediates the majority of this drug biotransformation reaction
Whole blood glucose levels vs Vehicle group (NASH mice [4]): no significant differences
Plasma ALT (mean ± SD) (NASH mice [4]): 18 ± 10 U/L
Survived mice with absence of visible tumor nodules on the liver surface (mice with HCC; 18 wk): 2 out of 3
Maximum diameter of nodules (mean ± SD) (mice with HCC; 18 wk): 0.7 ± 1.2 mm
Number of nodules (mean ± SD) (mice with HCC; 18 wk): 0.3 ± 0.6
Tumor formation in mouse livers (FIG. 8, representative images) (mice with HCC; mouse, in vivo): inhibition of tumor formation
Liver weight (mean ± SD) (NASH induced HCC mice): 1710 ± 113 mg
Liver-to-body weight ratio (mean ± SD) (NASH induced HCC mice): 6.3 ± 0.8%
Mice died before reaching week 18 (NASH induced HCC mice; male, C57BL/6, mouse, in vivo): one out of 4

CNC(=O)c1cc(Oc2ccc(NC(=O)Nc3ccc(Cl)c(C(F)(F)F)c3)cc2)ccn1 [sorafenib]
Hypophosphatemia (HCC [6]; grade 3): 11%
Thrombocytopenia (HCC [6]; grade 3 or 4): 4%
Median time to radiologic progression (HCC [6]): 5.5 months
Overall incidence of treatment-related adverse events (HCC [6]): 80%
Toxicity: diarrhea (HCC [7]; all grades): over 40%
Toxicity: fatigue (HCC [7]; all grades): 30%
Toxicity: hand-foot skin reaction (HCC [7]; all grades): over 30%
Grade 3/4 drug-related toxicity: diarrhea (HCC [7]): 8.0%
Grade 3/4 drug-related toxicity: fatigue (HCC [7]): 9.5%
Grade 3/4 drug-related toxicity: hand-foot skin reaction (HCC [7]): 5.1%
Median time to progression (TTP) (HCC [7]): 4.2 months
